Columns and labels:
Experiment in all cases: drug sensitivity score (DSS) (DSS (unitless, 0-50 scale)); higher = more sensitive (stronger viability inhibition); extreme values may be limits of the assay
Conditions in all cases: 72 h; culture: 2D
WM852 = system: WM852
Summary of the method: (§1)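 Melanoma cell lines and patient-derived melanoma cultures at 1000–1500 cells per well were exposed in 2D, in 384-well plates, to a 527-compound oncology library at five concentrations spanning a 10,000-fold range for 72 h at 37 °C. CellTiter-Glo luminescence then measured viability. From dose-response curves fitted in the in-house Breeze software, a drug sensitivity score, a modified area-under-curve measure, was obtained.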

FM-MEL-2 = system: FM-MEL-2
Summary of the method: as §1

WM165 = system: WM165
Summary of the method: as §1

FM-MEL-3 = system: FM-MEL-3
Summary of the method: as §1

FM-MEL-6 = system: FM-MEL-6
Summary of the method: as §1

SK-MEL-2 = system: SK-MEL-2
Summary of the method: as §1

Bowes = system: Bowes
Summary of the method: as §1

SK-MEL-28 = system: SK-MEL-28
Summary of the method: as §1

SMILES | drug sensitivity score (WM852) | drug sensitivity score (FM-MEL-2) | drug sensitivity score (WM165) | drug sensitivity score (FM-MEL-3) | drug sensitivity score (FM-MEL-6) | drug sensitivity score (SK-MEL-2) | drug sensitivity score (Bowes) | drug sensitivity score (SK-MEL-28)
Cc1ccc(C(=O)N(CCCN)[C@@H](c2oc3cc(Cl)ccc3c(=O)c2Cc2ccccc2)C(C)C)cc1 | 4.5 | 3.9 | 4.3 | 2.1 | 5.4 | 10 | 7.7 | 0.9
CO[C@@H](C)Cn1c(=O)n(C)c2cnc3ccc(-c4cncc(C(C)(C)O)c4)cc3c21 | 7.5 | 9.6 | 12 | 8.9 | 9.3 | 7.3 | 10.4 | 7.9
CNC(=O)[C@@H](NC(=O)[C@H](CC(C)C)[C@H](O)C(=O)NO)C(C)(C)C [Marimastat] | 0 | 0 | 0.6 | 0 | 0 | 0 | 0 | 0
O=C(CCCCCCC(=O)Nc1ccccc1)NO [Vorinostat] | 4.4 | 5.6 | 9.1 | 9.2 | 8.4 | 6.1 | 0.7 | 7.9
COc1cccc2c1C(=O)c1c(O)c3c(c(O)c1C2=O)C[C@@](O)(C(C)=O)C[C@@H]3O[C@H]1C[C@H](N)[C@H](O)[C@H](C)O1 [Daunorubicin] | 4.6 | 6.8 | 13.4 | 8.3 | 7.4 | 4.7 | 4.5 | 7.2
Cc1cc(Nc2cc(N3CCN(C)CC3)nc(/C=C/c3ccccc3)n2)n[nH]1 [ENMD-2076] | 7.5 | 7.6 | 12.6 | 7.8 | 6.4 | 8.9 | 11.1 | 7.9
C=CC(=O)N1CCC[C@@H](n2nc(-c3ccc(Oc4ccccc4)cc3)c3c(N)ncnc32)C1 [Ibrutinib] | 0 | 0.2 | 0 | 0 | 0 | 0 | 2.8 | 0
CC[C@@](C)(Nc1ccnc(-c2c[nH]c3ncccc23)n1)C(=O)NCC(F)(F)F [Decernotinib] | 0 | 0.2 | 0 | 0 | 0 | 0 | 0 | 0.3
CN(C(=O)c1ccc(F)cc1C(F)(F)F)C1CCN(c2nnc(-c3ccnn3C)c3ccccc23)CC1 [Taladegib] | 0 | 0.4 | 0 | 0 | 0 | 0 | 0 | 0
COc1cc(OC)cc(N(CCNC(C)C)c2ccc3ncc(-c4cnn(C)c4)nc3c2)c1 [Erdafitinib] | 0.8 | 0 | 0 | 0 | 0 | 0 | 2.4 | 0
CO[C@H]1C[C@@H]2CC[C@@H](C)[C@@](O)(O2)C(=O)C(=O)N2CCCC[C@H]2C(=O)O[C@H]([C@H](C)C[C@@H]2CC[C@@H](OCCO)[C@H](OC)C2)CC(=O)[C@H](C)/C=C(\C)[C@@H](O)[C@@H](OC)C(=O)[C@H](C)C[C@H](C)/C=C/C=C/C=C/1C [Everolimus] | 0 | 2.2 | 4.9 | 4.7 | 3.6 | 0 | 0 | 3
CCCOc1ccn2c(C(C)=O)cc(-c3ccccc3S(C)(=O)=O)c2c1 [GSK2801] | 0 | 0.1 | 0 | 0 | 0 | 0 | 0.7 | 0
CCOc1cc2ncc(C#N)c(Nc3ccc(OCc4ccccn4)c(Cl)c3)c2cc1NC(=O)/C=C/CN(C)C [Neratinib] | 0.5 | 1 | 4.9 | 3.2 | 0.3 | 0.2 | 3.2 | 0
O=c1ncn2nc(Sc3ccc(F)cc3F)ccc2c1-c1c(Cl)cccc1Cl [Neflamapimod] | 0.1 | 0.1 | 0.1 | 0.8 | 0.2 | 0 | 1.6 | 0.1
CCN(CC)Cc1ccc2cc(COC(=O)Nc3ccc(C(=O)NO)cc3)ccc2c1 [Givinostat] | 2.2 | 4.3 | 6.6 | 5.2 | 5.8 | 5.6 | 2 | 4.9
C[C@H](Nc1ncnc2[nH]cnc12)c1cc2ccc(F)cc2nc1-c1ccccn1 [AMG319] | 0 | 1.7 | 0 | 0 | 0.6 | 0 | 0 | 0
FC(F)(F)c1ccc(CNc2ccc(Cc3c[nH]c4ncc(Cl)cc34)cn2)cn1 [Pexidartinib] | 4.5 | 1 | 2.4 | 3 | 1.1 | 0 | 0.2 | 0.4

SMILES | drug sensitivity score (WM852) | drug sensitivity score (FM-MEL-2) | drug sensitivity score (WM165) | drug sensitivity score (FM-MEL-3) | drug sensitivity score (FM-MEL-6) | drug sensitivity score (SK-MEL-2) | drug sensitivity score (Bowes) | drug sensitivity score (SK-MEL-28)
CCNc1nc(Nc2cc(F)c(C(=O)N3CCOCC3)cc2OC)ncc1C(F)(F)F [GNE-7915] | 0 | 0 | 0 | 2.6 | 0 | 0 | 0 | 0
CC(C)C[C@@H](C(=O)N[C@H](C(=O)OC1CCCC1)c1ccccc1)[C@H](O)C(=O)NO [Tosedostat] | 0.7 | 6.3 | 6.8 | 6.3 | 7.9 | 5.3 | 1.4 | 6.7
CC(C)c1c(C(=O)Nc2ccccc2)c(-c2ccccc2)c(-c2ccc(F)cc2)n1CC[C@@H](O)C[C@@H](O)CC(=O)O [Atorvastatin] | 4.4 | 0 | 7.6 | 1.5 | 0 | 1.1 | 5.8 | 1
CNC(=O)c1ccccc1Sc1ccc2c(/C=C/c3ccccn3)n[nH]c2c1 [Axitinib] | 0.1 | 2.1 | 4.6 | 2.6 | 0 | 0 | 0.1 | 0.1
COc1nc(N)nc2c1ncn2[C@@H]1O[C@H](CO)[C@@H](O)[C@@H]1O [Nelarabine] | 0.6 | 0 | 0 | 0 | 0.1 | 0 | 0 | 0.1
COc1cc2c(cc1OC(C)C)[C@H](c1ccc(Cl)cc1)N(c1ccc(N(C)C[C@H]3CC[C@H](N4CCN(C)C(=O)C4)CC3)cc1)C(=O)C2 [NVP-CGM097] | 6.8 | 7.6 | 18 | 13.1 | 5 | 3.7 | 5.1 | 6.2
O=C1NC(=O)[C@@H](c2cn3c4c(cccc24)CCC3)[C@@H]1c1c[nH]c2ccccc12 [Tivantinib] | 3.1 | 1.9 | 3.1 | 2.3 | 3.2 | 3.8 | 3.6 | 2.1
COc1cc2c(NC3CCN(C(C)C)CC3)nc(C3CCCCC3)nc2cc1OCCCN1CCCC1 [UNC0638] | 5.9 | 6.9 | 5.8 | 4.4 | 2.8 | 5.9 | 6.6 | 5.8
CC[C@@H]1C(=O)OC[C@@H]1Cc1cncn1C [Pilocarpine] | 0 | 0 | 0 | 1.5 | 0 | 0 | 0 | 0
COc1c(C)cnc(Cn2cnc3c(Cl)nc(N)nc32)c1C [BIIB021] | 8.7 | 11.6 | 17.5 | 15.5 | 7.8 | 10.9 | 13.2 | 8.9
COc1ccc(C[C@H](NC(=O)[C@H](C)NC(=O)CN2CCOCC2)C(=O)N[C@@H](Cc2ccccc2)C(=O)C2(C)CO2)cc1 (stereo in doubt) [ONX-0914] | 16.6 | 13.5 | 18.8 | 19.2 | 18.7 | 15.6 | 21.2 | 19.4
C[C@@H](Oc1ccc2[nH]nc(/C=C/c3cnn(CCO)c3)c2c1)c1c(Cl)cncc1Cl | 3.2 | 0 | 4.3 | 2.1 | 2 | 0.3 | 6 | 1.3
C=CC(=O)Nc1cc2c(Nc3ccc(F)c(Cl)c3)ncnc2cc1OCCCN1CCOCC1 [Canertinib] | 6.5 | 8.4 | 7.5 | 9.1 | 6.3 | 4.9 | 8.7 | 3.5
Cc1nc(Nc2n[nH]c3c2CN(C(=O)N[C@H](CN(C)C)c2ccccc2)C3(C)C)c2sccc2n1 | 9.9 | 11.8 | 26.9 | 17.5 | 14.8 | 12.3 | 18.6 | 18.4
CC[C@@]1(O)C(=O)OCc2c1cc1n(c2=O)Cc2cc3c(CN(C)C)c(O)ccc3nc2-1 [Topotecan] | 1.4 | 6.1 | 25.3 | 11 | 8.1 | 8.2 | 6.8 | 8.1
CN(C)CC#Cc1ccc(OCCCc2sc(N3CCc4cccc(C(=O)Nc5nc6ccccc6s5)c4C3)nc2C(=O)O)c(F)c1 | 0 | 4.6 | 0.2 | 16.7 | 0.7 | 0 | 0.5 | 0
O=C(NOCCO)c1ccc2cncn2c1Nc1ccc(I)cc1F [GDC-0623] | 2.4 | 16.5 | 7.6 | 8.9 | 6.2 | 16.8 | 1.4 | 8.9

Source: the supplement of paper PMC8633005
